{
  "source": "patent US9682085B2",
  "about": "“Anti-proprotein convertase subtilisin kexin type 9 (anti-PCSK9) compounds and methods of using the same in the treatment and/or prevention of cardiovascular diseases” (Shifa Biomedical Corporation, priority 2013, dated 2017)",
  "key": {"mice fed high fat diet": {"system": "mice fed high fat diet", "assay": "Test for efficacy in animal model (mice fed high fat diet)", "format": "in vivo, mice (C57BL/6)", "method": "SBC-115,076, and SBC-110,034 were tested for their efficacy in male mice (C57BL/6 mice). Mice were housed as four animals per cage under climate-controlled conditions of temperature (20-24° C.), humidity (60-70%), and alternating 12 h light/dark cycles. One group was fed commercial chow diet (Prolab RMH 3000, PMI feeds, St. Louis, Mo.) to serve as a negative control, while the other four groups were fed high fat diet (TD.06414), which provides 60% of calories from fat. Water was provided ad libitum. Plasma was collected once weekly to monitor the level of LDL. After 4 weeks of feeding a high fat-diet, mice were randomly assigned to one of several groups such that the average LDL levels were equal among different groups. […] Blood samples (75 μl) were collected twice weekly after drug administration from the retro-orbital venous plexus via heparinized capillary tubes containing 2 USP units of ammonium heparin per tube (Carolina, Burlington, N.C.). Plasma were separated immediately by centrifugation (5,000×g) for 5 min at room temperature and then kept at −80° C. until assayed for lipid profile. Plasma cholesterol, LDL-C, HDL-C, and triglyceride levels are measured enzymatically. Additionally, the plasma levels of PCSK9 and chemokines/cytokines were measured for potential pleiotropic effects of PCSK9 inhibitors using ELISA and multiplex assays."}, "HepG2 cells": {"system": "HepG2 cells", "assay": "Uptake of Fluorescent Dil-LDL in HepG2 cells in situ", "format": "cell-based", "conditions": "various concentrations (FIG. 6)", "method": "The SBC compounds were validated for their ability to increase uptake of Fluorescent Dil-LDL in HepG2 cells.\nWe also tested the ability of the PCSK9 compounds to enhance the uptake of Fluorescent Dil-LDL in HepG2 cells. Briefly, HepG2 cells were plated and allowed to grow overnight. Compounds were added to the cells followed by the addition of Fluorescent Dil-LDL. Cells were washed extensively, and the Fluorescent Di-LDL taken up by the cells were measured using the Synergy 2 plate reader (FIG. 6)."}, "PCSK9": {"target": "T1, PCSK9 (Homo sapiens, UniProt Q8NBP7)", "T1 construct": "host or cells: patients (endogenous circulating PCSK9)", "T1 sequence (Q8NBP7 153-692)": "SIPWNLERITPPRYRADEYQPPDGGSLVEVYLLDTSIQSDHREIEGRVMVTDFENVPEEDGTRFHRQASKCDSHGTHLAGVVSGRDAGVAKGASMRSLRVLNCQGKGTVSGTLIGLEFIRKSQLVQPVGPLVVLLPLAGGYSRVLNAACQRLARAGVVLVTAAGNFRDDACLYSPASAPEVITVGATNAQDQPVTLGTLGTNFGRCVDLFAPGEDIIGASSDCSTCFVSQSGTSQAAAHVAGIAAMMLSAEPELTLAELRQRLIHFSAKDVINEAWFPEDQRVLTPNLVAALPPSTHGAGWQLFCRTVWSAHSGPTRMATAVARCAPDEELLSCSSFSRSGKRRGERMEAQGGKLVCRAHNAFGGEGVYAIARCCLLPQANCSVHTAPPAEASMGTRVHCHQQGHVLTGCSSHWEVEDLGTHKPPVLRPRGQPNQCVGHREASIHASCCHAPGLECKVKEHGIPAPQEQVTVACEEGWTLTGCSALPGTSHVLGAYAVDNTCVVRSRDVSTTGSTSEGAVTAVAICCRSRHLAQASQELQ", "conditions": "single injection, clinical trial; cited from earlier work"}, "[1]": {"conditions": "8 mg/kg daily s.c., after two weeks, P<0.01 (FIG. 8)"}, "[2]": {"conditions": "second study, 40 mg/kg, after three weeks, P<0.01"}},
  "data": [
    {"molecule": "Cc1cc(C(=O)C2=C(O)C(=O)N(CCCN3CCOCC3)C2c2ccncc2)ccc1OCc1ccccc1", "note": "(stereo not shown) [SBC-115,076]", "values": [
      {"measurement": "mean reduction in total cholesterol levels relative to high fat diet animal levels", "setting": "mice fed high fat diet; [1]", "value": 32, "unit": "%"},
      {"measurement": "mean reduction toward return to regular diet cholesterol levels", "setting": "mice fed high fat diet; [1]", "value": 50, "unit": "%"},
      {"measurement": "cholesterol levels in mice fed high fat diet", "setting": "mice fed high fat diet; 8 mg/kg daily subcutaneously for two weeks", "value": "lowered cholesterol levels"},
      {"measurement": "uptake of Fluorescent Dil-LDL", "setting": "HepG2 cells", "value": "increase in the Fluorescent Dil-LDL uptake using submicromolar concentrations"}
    ]},
    {"molecule": "REGN727: Regeneron/Sanofi fully-human PCSK9 monoclonal antibody", "values": [
      {"measurement": "reduction of LDL levels", "setting": "PCSK9", "value": "more than 60%"}
    ]},
    {"molecule": "CC(C)c1c(C(=O)Nc2ccccc2)c(-c2ccccc2)c(-c2ccc(F)cc2)n1CC[C@@H](O)C[C@@H](O)CC(=O)O", "note": "[Atorvastatin, reference compound]", "values": [
      {"measurement": "mean reduction in total cholesterol levels relative to high fat diet animal levels", "setting": "mice fed high fat diet; [2]", "value": 27, "unit": "%"},
      {"measurement": "mean reduction toward return to regular diet cholesterol levels", "setting": "mice fed high fat diet; [2]", "value": 44, "unit": "%"}
    ]}
  ]
}
